Literature values, collected in patent US6491840B1, “Polymer compositions having specified PH for improved dispensing and improved stability of wrinkle reducing compositions and methods of use” (The Procter & Gamble Company, priority 2000, dated 2002).

Q: For `ClC=CC[N+]12CN3CN(CN(C3)C1)C2.[Cl-]` [Dowicil 200, 1-(3-Chlorallyl)-3,5,7-triaza-1-azoniaadamantane chloride], which “solubility in water” value is on record?
A: freely soluble in water
